Entries after “also recorded” stand apart in the source; their conditions may differ.
What was measured:
[1] = tested on: Lewis rats; experiment: Intraperitoneal glucose tolerance test (IPGTT) in normal Lewis rats after a single i.v. dose; type: in vivo, rat; details: for blood glucose excursion during IPGTT: Lewis rats 9-11 week old, 1.6 μg/gm body weight i.v. 60 min before IPGTT, vs vehicle
Description: (§1) Experimental animals. All animal studies were reviewed and approved by the Institutional Animal Care and Use Committee (IACUC) at Columbia University's Medical School. All experiments were performed in accordance with the IACUC approved procedures. Normal male Lewis rats (100-400 grams) were obtained from Taconic (Taconic Inc., Germantown, N.Y.) and were housed under conditions of controlled humidity (55±5%), temperature (23±1° C.), and lighting (light on: 06.00-18.00 hours) with free access to standard laboratory rat chow and water. Rats were handled daily to minimize nonspecific stress for more than 7 days before the experiments began. In most experiments, it was necessary to measure blood glucose in fasting animals. For these groups, food was removed at the beginning of the light cycle, 6 hours before glucose levels were measured. Diabetes mellitus was induced by intraperitoneal injection of streptozotocin (Sigma Chemical Co., St. Louis, Mo.) (25 to 50 mg/kg) to animals (100 to 150 grams) that had been fasted 4 hours to enhance the effectiveness of STZ treatment.
(§2) The STZ solution was prepared fresh by dissolving it in 0.1 M citrate buffer (pH 5.5) and terminally sterile filtered. Control Lewis age and weight matched rats received a 0.5 ml/kg citrate vehicle alone via intraperitoneal injection. Sixty minutes prior to intraperitoneal glucose tolerance testing (IPGTT), anesthesia of male Lewis rats was induced with isoflurane (3-4% in oxygen) and maintained with 1-2% isoflurane in oxygen. Anaesthetized rats were administered TBZ at the indicated dose by intravenous (i.v.) injection using the penile vein. TBZ was dissolved in neat sterile dimethylsulfoxide (DMSO) and diluted (always more than 10 fold) in sterile saline. Rats received injections of vehicle alone (10% DMSO in saline) or reserpine (in saline). Animals recovered fully before receiving IPGTT.
Blood glucose, insulin, glucagon and intraperitoneal glucose tolerance tests measurements. Blood samples were collected from a superficial blood vessel in the tails of the rats following 6 hours of fasting between 12:00 noon and 2:00 p.m. The fasting blood glucose (BG) levels of the rats were measured using an Accu-Check blood glucose monitoring system (Roche Diagnostics, Sommerville, N.J.). Intraperitoneal glucose tolerance tests (IPGTT) were performed in 6 hour fasting un-anaesthetized animals. Briefly, after baseline BG measurements, animals received an intraperitoneal (i.p.) injection of 1 gram glucose/kilogram body weight. To minimize stress during the procedure, rats were handled by the same operator during acclimatization and later during weighing and IPGTT. Blood samples (approximately 30 μl) were collected at baseline and then again 15, 30, 60, 90, and 120 minutes following i.p. glucose administration. BG concentrations were measured immediately on these samples and the remainder processed.
Plasma was immediately separated by centrifugation at 3000×g for 15 minutes and then stored at −20° C. until analysis. Insulin and glucagon concentration measurements in rat plasma were performed by ELISA as per the manufacturer's instructions using kits from Linco Research Inc. (St. Charles, Mo.) and Alpco Diagnostics (Salem, N.H.), respectively. To validate the test, saline injections were performed by the same method. […] The area under the IPGTT glucose concentration×time curve (AUCIPGTT) was calculated by the trapezoidal rule. The area under the insulin or glucagon concentration×time curve (AUC INS or AUC GCG) was calculated in a similar manner.

[2] = tested on: diabetic Lewis rats; experiment: IPGTT in streptozotocin-induced diabetic Lewis rats; type: in vivo, rat
Description: as §1, §2
Blood glucose, insulin, glucagon and intraperitoneal glucose tolerance tests measurements. Blood samples were collected from a superficial blood vessel in the tails of the rats following 6 hours of fasting between 12:00 noon and 2:00 p.m. The fasting blood glucose (BG) levels of the rats were measured using an Accu-Check blood glucose monitoring system (Roche Diagnostics, Sommerville, N.J.). […] BG concentrations were measured immediately on these samples and the remainder processed.
Plasma was immediately separated by centrifugation at 3000×g for 15 minutes and then stored at −20° C. until analysis. […] The area under the IPGTT glucose concentration×time curve (AUCIPGTT) was calculated by the trapezoidal rule. The area under the insulin or glucagon concentration×time curve (AUC INS or AUC GCG) was calculated in a similar manner.

In the case of `COc1cc2c(cc1OC)C1CC(=O)C(CC(C)C)CN1CC2` (centres unmarked) [TBZ, tetrabenazine], the “reduction of the glucose excursion (areas under the curve during IPGTT)” value ([1]; 1.6 μg/gbm (gram body weight) i.v.) is reported as 40-50%, the “AUC IPGTT, controls vs TBZ treated animals” value ([1]; 1.6 μg/gm body weight, n=4 experiments, p<0.05) is reported as “significantly higher” and the “rise in glucose concentration around 15 minutes after injection” value ([1]; IPGTT following TBZ administration) is reported as “blunted”. The “blood glucose excursion during IPGTT” value [1] was “reduces the blood glucose excursion”, the “blood glucose excursion during IPGTT” value ([1]; listed as tetrabenazine) was “significant change in the size and shape of the glucose disposition curve” and the “baseline fasting glucose concentration” value ([1]; following TBZ administration, before glucose challenge, data not shown) was “no reproducible differences”. The “dose response of AUC IPGTT (normalized to baseline)” value ([1]; varying doses of TBZ before IPGTT) was “reduces the blood glucose excursion in a dose dependent manner; also recorded: complex dose response effect”, the “blood glucose excursion during IPGTT” value ([2]; STZ-diabetic Lewis rats, 1.6 μg/gm, vs vehicle) was “reduces the blood glucose excursion” and the “blood glucose levels before i.p. glucose challenge” value ([2]; STZ-diabetic rats, around sixty minutes following i.v. injection) was “returned to control or near normal levels”. The “area under the curve in the IPGTT” value ([2]; STZ-diabetic rats, following glucose challenge) was “smaller area under the curve” and the glucose tolerance-enhancing effects ([2]; animals with initial untreated AUC IPGTT>50,000 minutes×mg/dl, data not shown) was “not observed”.
